Reference: patent US20150290192A1, “INHIBITORS OF BRUTON'S TYROSINE KINASE” (HOFFMANN-LA ROCHE INC., priority 2012, published 2015)
Read-outs that look alike come from different tables or passages of the source. Marks after values point to notes of the source that are not given here.

Assays:
[1] = target: Btk kinase (Homo sapiens, UniProt Q06187); test: Btk Biacore binding assay
Protocol: Analyses were performed on a Biacore T-100. Btk kinase was avi-tagged and co-expressed in baculovirus with biotin ligase to generate single site biotinylated Btk (Avidity, LLC). Biotinylated target was captured on Biacore streptavidin sensor chips (Series S Sensor Chip SA) at densities of ˜10000 resonance units (1 ru˜1 pg protein/mm2). […] Compounds were injected for 100 seconds association time and dissociation was followed for 20 min.

[2] = Pharmacokinetics in dog; type: in vivo
[3] = tested on: mice, poly I:C-induced airway neutrophilia; test: Poly I:C induced steroid-resistant airway inflammation (neutrophilia); type: in vivo, mouse; conditions: for % reduction in airway neutrophilia: Inhaled
Protocol: Compound 1's effects on airway inflammation induced by a synthetic form of double-stranded RNA, polyinosine-polycytidylic acid (Poly I:C) were assessed. […] To perform this experiment, mice (male; BALB/c; 7-9 weeks of age) were anesthetized with isoflurane and intranasally (i.n.) administered saline or poly I:C ([…]) and airway inflammation was evaluated 24 hours later as previously described [Harris et al., 2012, Mucosal Immunology]. Compound 1 inhibited poly I:C-induced airway neutrophilia in a dose-dependent (Table 6). These reductions in neutrophils were consistent with reductions in the levels of neutrophil chemoattractants in the lavage fluid (Table 4).

[4] = Pharmacokinetics in cynomolgus monkey; type: in vivo; conditions: Cyno
[5] = tested on: human mast cells (FCεRI activation); test: Human mast cell activation, mediator release after FCεRI activation; type: cell-based; conditions: N = 3 donors
Protocol: One million human cord blood derived CD34+ hematopoietic stem cells (HSCs) from different donors (AllCells #CB008F-S, Emeryville, Calif.) were cultured for eight weeks in a serum-free complete medium (StemPro-34 with supplements; Invitrogen, Carlsbad, Calif.), with recombinant h-SCF (100 ng/ml) and h-IL6 (50 ng/ml). During the first week of culturing, recombinant h-IL3 (10 ng/ml) was also included to support HSCs differentiation. After 8 weeks of culture, cells were stimulated with recombinant h-IL-4 (10 ng/ml) for 5 days. Confirmation of the mast cell differentiation process was routinely done by FACS to check for c-kit and FcsRI expression; differentiated cells were routinely more than 90% c-kit positive, FceRI positive. Differentiated mast cells were sensitized with […] anti-NP IgE (Serotec, Raleigh, N.C.) overnight at 37° C. Cells were washed and then treated with Compound 1 for 1 hour at 37° C. After treatment, cells were cross-linked with […] NP(30)-BSA (Biosearch Technologies, Novato Calif.) for 30 minutes (for histamine and lipid mediator assessment) or overnight (for cytokine assessment). Culture supernatants were collected and assayed for histamine (Oxford Biomedical Research, Rochester Hills, Mich.), PGD2 and LTC4 (Cayman Chemical Company, Ann Arbor Mich.), and IL-5 and IL-13 (Bio-Rad Bio-Plex Pro cytokine quantification kit) release as per kits' instructions. Compound 1, Compound 2 and Compound 3 reduced the release of these mediators into the supernatant in a concentration dependent manner up to 100% efficacy and the IC50 values are reported in Table 2.

[6] = tested on: human B cells (BCR activation); test: Human B cell antibody production after BCR activation; type: cell-based; conditions: for IC50: Homo sapiens, B-cell, N = 3 donors
Protocol: Human total B cells were enriched with RosetteSep human B cell enrichment cocktail (#28921, Vancouver, BC) from buffy coat leukocyte packs (New York Blood Center) following manufacturer's protocol. Enriched B cell purity (around 80%) was checked by FACS with CD19+ staining. B cells were suspended (0.1 million cells/well/100 μl) in RPMI-1640 based conditional medium (50 ng/ml IL-2, 50 ng/ml IL-10, and […] anti-IgD for the activation of B cells to produce IgG/IgM; 10 ng/ml IL-4, 10 ng/ml IL-10, 25 ng/ml IL-21, and […] anti-CD40 for the activation of B cells to produce IgE) together with Compound 1 (1 nM-10 μM). Cells were cultured for 10 days (for IgG/IgM production) or 14 days (for IgE production) at 37° C. Culture supernatants were collected for IgM, IgG, and IgE analysis following Bethyl Laboratory's protocol (#E80-104, #E80-100, #E80-108, Montgomery, Tex.).

Sequence of Btk kinase (Q06187 whole entry): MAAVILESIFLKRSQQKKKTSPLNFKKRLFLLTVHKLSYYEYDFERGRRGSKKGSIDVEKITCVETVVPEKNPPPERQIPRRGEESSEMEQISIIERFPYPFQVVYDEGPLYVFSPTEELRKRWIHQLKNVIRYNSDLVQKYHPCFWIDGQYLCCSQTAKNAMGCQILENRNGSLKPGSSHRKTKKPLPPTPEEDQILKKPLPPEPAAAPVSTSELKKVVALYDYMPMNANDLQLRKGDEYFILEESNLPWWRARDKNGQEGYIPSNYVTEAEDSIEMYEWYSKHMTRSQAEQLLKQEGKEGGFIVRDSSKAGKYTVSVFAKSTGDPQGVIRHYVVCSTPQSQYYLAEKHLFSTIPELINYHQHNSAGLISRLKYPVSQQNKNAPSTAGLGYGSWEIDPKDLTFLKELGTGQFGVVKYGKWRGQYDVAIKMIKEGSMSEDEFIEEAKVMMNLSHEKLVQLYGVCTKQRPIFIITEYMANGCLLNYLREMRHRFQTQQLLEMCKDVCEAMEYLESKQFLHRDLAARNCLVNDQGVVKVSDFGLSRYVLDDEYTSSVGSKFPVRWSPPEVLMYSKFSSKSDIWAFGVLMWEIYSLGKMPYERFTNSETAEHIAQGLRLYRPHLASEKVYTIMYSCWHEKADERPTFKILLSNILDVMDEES

Q: For `CN1CCC(c2ccc(Nc3cc(-c4ccnc(-n5ncc6cc(C(C)(C)C)cc(F)c6c5=O)c4CO)nn(C)c3=O)nc2)CC1` [Compound 1, 6-tert-Butyl-8-fluoro-2-{3-hydroxymethyl-4-[1-methyl-5-(1′-methyl-1′,2′,3′,4′,5′,6′-hexahydro-[3,4′]bipyridinyl-6-ylamino)-6-oxo-1,6-dihydro-pyridazin-3-yl]-pyridin-2-yl}-2H-phthalazin-1-one], which Kd [1] is on record?
A: The Kd was 0.408 nM.

Q: What about the off rate ([1]; Biacore) of the same molecule?
A: The off rate was “very slow”.

Q: What about the kon ([1]; read-out: Biacore Ka) of the same molecule?
A: Its kon is 886000 M⁻¹ s⁻¹.

Q: What about the CL ([2]; 1.0 mg/kg (iv)) of the same molecule?
A: Its CL is “high”.

Q: What about the “Oral Bioavailability” value ([2]; 1.0 (iv), 1.0 (po) mg/kg) of the same molecule?
A: The value was “low”.

Q: And the clearance ([2]; plasma, 1.0 mg/kg (iv))?
A: Its clearance is 28.3 mL/min/kg.

Q: What about the bioavailability ([2]; plasma, 1 mg/kg, 1.0 (iv), 1.0 (po) mg/kg) of the same molecule?
A: The bioavailability was 1.5%.

Q: And the “% reduction in airway neutrophilia” value ([3]; delivered dose 0.09 mg/kg, deposited dose .003 mg/kg, mPolyIC-3-12)?
A: The value was 17%.

Q: And the “% reduction in airway neutrophilia” value ([3]; delivered dose 0.27 mg/kg, deposited dose .010 mg/kg, mPolyIC-3-12)?
A: The value was 22%.

Q: And the “% reduction in airway neutrophilia” value ([3]; delivered dose 0.81 mg/kg, deposited dose .030 mg/kg, mPolyIC-3-12)?
A: The value was 67* %.

Q: What about the “% reduction in airway neutrophilia” value ([3]; delivered dose 8.6 mg/kg, deposited dose 0.3 mg/kg, mPolyIC-5-12) of the same molecule?
A: Its value is 83* %.

Q: And the “poly I:C-induced airway neutrophilia” value ([3]; dose-dependent)?
A: The value was “inhibited”.

Q: What about the “levels of neutrophil chemoattractants in the lavage fluid” value ([3]; mouse, in vivo) of the same molecule?
A: The value was “reductions”.

Q: And the CL ([4]; 0.3 mg/kg (iv))?
A: The CL was “high”.

Q: What about the “Oral Bioavailability” value ([4]; 0.3 (iv), 0.9 (po) mg/kg) of the same molecule?
A: The value was “low”.

Q: And the bioavailability ([4]; cynomolgus monkey, plasma, 0.9 mg/kg, 0.3 (iv), 0.9 (po) mg/kg)?
A: Its bioavailability is 8%.

Q: And the clearance ([4]; cynomolgus monkey, plasma, 0.3 mg/kg (iv))?
A: The clearance was 38.9 mL/min/kg.

Q: What about the IC50 ([5]; read-out: IC50 1L-13 release) of the same molecule?
A: Its IC50 is 11.6 nM.

Q: What about the IC50 ([5]; read-out: IC50 GM-CSF release) of the same molecule?
A: The IC50 was 3.77 nM.

Q: What about the IC50 ([5]; read-out: IC50 Histamine release) of the same molecule?
A: Its IC50 is 14.7 nM.

Q: What about the IC50 ([5]; read-out: IC50 IL-5 release) of the same molecule?
A: Its IC50 is 7.32 nM.

Q: And the IC50 ([5]; read-out: IC50 LTC4 release)?
A: The IC50 was 4.28 nM.

Q: And the IC50 ([5]; read-out: IC50 PGD2 release)?
A: Its IC50 is 6.31 nM.

Q: What about the IC50 ([6]; 240 h, 10 days culture, read-out: IC50 IgG production) of the same molecule?
A: The IC50 was 4.15 nM.

Q: What about the IC50 ([6]; 240 h, 10 days culture, read-out: IC50 IgM production) of the same molecule?
A: Its IC50 is 1.21 nM.

Q: And the IC50 ([6]; 336 h, 14 days culture, read-out: IC50 IgE production)?
A: The IC50 was 1.47 nM.

Q: And the “reduction of levels of IgM, IgG, and IgE in the supernatant, efficacy” value ([6]; concentration dependent)?
A: The value was “up to 100%”.
